Measurements: patent US20220220128A1, “HETEROCYCLIC COMPOUNDS AS KINASE INHIBITORS, COMPOSITIONS COMPRISING THE HETEROCYCLIC COMPOUND, AND METHODS OF USE THEREOF” (JS Innopharm (Shanghai) Ltd, priority 2019, published 2022)

Legend:
BAF3-KIF5B-RET cells = target: T1, BAF3-KIF5B-RET cells (Homo sapiens, UniProt P07949); assay: BAF3-KIF5B-RET Cell proliferation assay (CellTiter-Glo, 72 hours); assay type: cell-based; conditions: growth inhibition, read-out: BA/F3-KIF5B-RET Cellular activity
T1 construct: fused on or other part: P33176 (Kinesin-1 heavy chain)
T1 sequence (P07949 whole entry, change not shown, the tested form may be a part): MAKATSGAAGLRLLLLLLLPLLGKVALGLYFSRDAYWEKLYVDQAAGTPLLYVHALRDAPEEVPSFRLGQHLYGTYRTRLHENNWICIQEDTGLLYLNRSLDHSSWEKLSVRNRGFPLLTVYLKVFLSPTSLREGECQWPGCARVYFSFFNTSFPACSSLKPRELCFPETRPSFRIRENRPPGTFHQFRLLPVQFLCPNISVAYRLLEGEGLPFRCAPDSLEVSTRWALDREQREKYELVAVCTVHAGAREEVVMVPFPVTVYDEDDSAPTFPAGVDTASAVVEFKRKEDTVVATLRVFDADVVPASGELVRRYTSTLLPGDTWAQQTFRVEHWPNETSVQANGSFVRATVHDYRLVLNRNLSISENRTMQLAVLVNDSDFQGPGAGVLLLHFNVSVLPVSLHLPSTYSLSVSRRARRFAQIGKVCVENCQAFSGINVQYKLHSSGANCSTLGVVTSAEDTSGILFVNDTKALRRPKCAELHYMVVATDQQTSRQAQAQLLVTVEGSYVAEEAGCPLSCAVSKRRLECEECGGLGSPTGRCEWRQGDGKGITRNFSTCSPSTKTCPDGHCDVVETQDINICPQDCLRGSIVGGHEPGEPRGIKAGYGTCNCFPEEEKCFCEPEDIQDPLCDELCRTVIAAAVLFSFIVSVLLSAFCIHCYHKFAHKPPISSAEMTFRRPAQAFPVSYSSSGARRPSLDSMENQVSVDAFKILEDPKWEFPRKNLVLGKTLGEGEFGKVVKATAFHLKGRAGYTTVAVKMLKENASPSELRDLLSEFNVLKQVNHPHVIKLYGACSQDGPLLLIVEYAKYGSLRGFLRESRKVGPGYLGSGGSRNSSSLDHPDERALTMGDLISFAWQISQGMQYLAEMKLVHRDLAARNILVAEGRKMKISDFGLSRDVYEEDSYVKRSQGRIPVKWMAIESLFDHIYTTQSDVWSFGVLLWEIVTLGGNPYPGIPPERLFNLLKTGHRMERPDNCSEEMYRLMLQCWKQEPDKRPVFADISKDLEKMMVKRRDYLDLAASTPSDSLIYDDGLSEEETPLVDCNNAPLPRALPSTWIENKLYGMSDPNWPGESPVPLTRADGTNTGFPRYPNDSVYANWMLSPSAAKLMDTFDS
Method: Compounds disclosed herein were tested for the inhibition of RET by a cancer cell proliferation assay commonly known as CellTiter-Glo assay. In this assay, a complete media was prepared by adding 10% fetal bovine serum to RPMI-1640 medium (Life technology) for BAF3-FIF5B-RET cells. BAF3-KIF5B-RET cells were added to each of 88 wells of a 96 well plate at a seeding density of 2,000 cells/well/95 μL. The cells were allowed to attach to the plate by incubating at 37° C. for 24 hours. The compound was dissolved in DMSO (SIGMA). A solution of test compound was prepared in complete media by serial dilution to obtain the following concentrations: 20 μM, 6.67 μM, 2.22 μM, 0.74 μM, 0.25 μM, 0.082 μM, 0.027 μM, 0.0091 μM and 0.0030 μM. The test compound solution (5 μL) was added to each of 80 cell-containing wells. The final concentrations of the compound were following: 1 μM, 0.33 μM, 0.11 μM, 0.037 μM, 0.012 μM, 0.0041 μM, 0.0014 μM, 0.00046 μM and 0.00015 μM. The final concentration of DMSO is 0.1%. To the 8 remaining cell-containing wells, only complete media (containing 0.1% DMSO) was added to form a control group in order to measure maximal proliferation. To the remaining 8 empty wells, complete media was added to for a vehicle control group in order to measure background. The plates were incubated at 37° C. for 72 hours. 50 μl of CellTiter-Glo® Reagent was added to each well. Mix contents for 2 minutes on an orbital shaker to induce cell lysis. Incubate at room temperature for 10 minutes to stabilize luminescent signal. Record luminescence on Paradigm. Cell viability (CV %) was calculated relative to vehicle (DMSO) treated control wells. The IC50 was calculated using GraphPad Prism.

human RET kinase = target: T2, human RET kinase (Homo sapiens, UniProt P07949); assay: RET Kinase Assay (LanthaScreen TR-FRET enzymatic assay); assay type: biochemical; conditions: 7 nM RET, 23 μM ATP
T2 construct: purchased Carna 08-159
T2 sequence (P07949 29-1114): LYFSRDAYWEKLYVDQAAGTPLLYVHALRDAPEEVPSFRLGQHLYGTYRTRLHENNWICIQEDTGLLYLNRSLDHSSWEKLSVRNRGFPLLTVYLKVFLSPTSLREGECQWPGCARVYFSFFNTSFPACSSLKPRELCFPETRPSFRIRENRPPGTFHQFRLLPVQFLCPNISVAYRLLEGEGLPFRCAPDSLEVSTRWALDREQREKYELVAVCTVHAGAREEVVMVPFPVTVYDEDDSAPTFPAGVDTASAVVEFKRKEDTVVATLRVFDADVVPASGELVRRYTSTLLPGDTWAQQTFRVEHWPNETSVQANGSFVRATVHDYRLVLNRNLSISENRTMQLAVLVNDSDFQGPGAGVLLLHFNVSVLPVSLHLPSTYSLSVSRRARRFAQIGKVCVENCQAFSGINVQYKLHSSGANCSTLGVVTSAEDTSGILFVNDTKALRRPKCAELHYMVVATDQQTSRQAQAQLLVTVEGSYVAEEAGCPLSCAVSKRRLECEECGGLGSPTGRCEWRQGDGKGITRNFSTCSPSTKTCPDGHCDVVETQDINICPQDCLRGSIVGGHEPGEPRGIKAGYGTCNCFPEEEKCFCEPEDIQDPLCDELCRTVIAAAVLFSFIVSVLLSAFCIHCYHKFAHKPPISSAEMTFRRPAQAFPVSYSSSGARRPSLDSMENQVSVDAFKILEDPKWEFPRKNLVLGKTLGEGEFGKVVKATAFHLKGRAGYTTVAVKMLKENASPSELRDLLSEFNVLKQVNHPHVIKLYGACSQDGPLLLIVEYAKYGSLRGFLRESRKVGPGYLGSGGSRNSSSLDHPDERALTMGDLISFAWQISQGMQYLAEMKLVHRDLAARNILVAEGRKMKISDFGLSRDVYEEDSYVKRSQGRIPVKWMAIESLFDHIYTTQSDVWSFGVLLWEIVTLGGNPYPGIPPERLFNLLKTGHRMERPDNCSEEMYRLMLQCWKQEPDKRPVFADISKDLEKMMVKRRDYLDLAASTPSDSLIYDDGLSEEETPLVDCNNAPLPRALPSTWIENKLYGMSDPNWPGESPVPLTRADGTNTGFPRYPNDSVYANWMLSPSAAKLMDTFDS
Summary of the method: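 Human RET (7 nM) preincubated 15 min with compound in 50 mM HEPES pH 7.5, 0.0015% Brij-35, then reacted with 3 μM FAM-P2 peptide and 23 μM ATP for 1 h at 28° C.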

SMILES	GI50 (BAF3-KIF5B-RET cells) [nM]	IC50 (human RET kinase) [nM]
COc1ccc(C(=O)N[C@@]2(C)C[C@H]3CN(c4ccc(-c5cc(OCC(C)(C)O)cn6ncc(C#N)c56)cn4)C[C@H]3C2)cn1 [Example 172, N-((3aR,5r,6aS)-2-(5-(3-cyano-6-(2-hydroxy-2-methylpropoxy)pyrazolo[1,5-a]pyridin-4-yl)pyridin-2-yl)-5-methyloctahydrocyclopenta[c]pyrrol-5-yl)-6-methoxynicotinamide]	> 100	10 to 50
COc1ccc(CN2C[C@@H]3CN(c4cnc(-c5cc(OCC(C)(C)O)cn6ncc(C#N)c56)cn4)C[C@@H]3C2)cn1 [Example 120, 6-(2-hydroxy-2-methylpropoxy)-4-(5-((3aR,6aS)-5-((6-methoxypyridin-3-yl)methyl)hexahydropyrrolo[3,4-c]pyrrol-2(1H)-yl)pyrazin-2-yl)pyrazolo[1,5-a]pyridine-3-carbonitrile]	10 to 50	≤ 10
Cn1cc(-c2cc(-c3ccc(N4C[C@@H]5C[C@@](O)(Cc6ccccn6)C[C@@H]5C4)nc3)c3c(C#N)cnn3c2)cn1 [Example 158, 4-(6-((3aR,5r,6aS)-5-hydroxy-5-(pyridin-2-ylmethyl)hexahydrocyclopenta[c]pyrrol-2(1H)-yl)pyridin-3-yl)-6-(1-methyl-1H-pyrazol-4-yl)pyrazolo[1,5-a]pyridine-3-carbonitrile]	10 to 50	≤ 10
CC(C)(O)COc1cc(-c2ccc(N3C[C@@H]4[C@H](C3)[C@H]4C(C)(C)NC(=O)c3ncccc3Cl)nc2)c2c(C#N)cnn2c1 [Example 129, 3-chloro-N-(2-((1R,5S,6r)-3-(5-(3-cyano-6-(2-hydroxy-2-methylpropoxy)pyrazolo[1,5-a]pyridin-4-yl)pyridin-2-yl)-3-azabicyclo[3.1.0]hexan-6-yl)propan-2-yl)picolinamide]	50 to 100	10 to 50
CC(C)(O)COc1cc(-c2cnc(N3C4CC5CC3CC(N)(C5)C4)cn2)c2c(C#N)cnn2c1 [Example 162, 4-(5-((1R,3S,5s,7s)-5-amino-2-azaadamantan-2-yl)pyrazin-2-yl)-6-(2-hydroxy-2-methylpropoxy)pyrazolo[1,5-a]pyridine-3-carbonitrile]	> 100	10 to 50
CC(C)(O)COc1cc(-c2cnc(N3C[C@H]4CN(Cc5ccc(C#N)nc5)C[C@H]4C3)cn2)c2c(C#N)cnn2c1 [Example 177, 4-(5-((3aR,6aS)-5-((6-cyanopyridin-3-yl)methyl)hexahydropyrrolo[3,4-c]pyrrol-2(1H)-yl)pyrazin-2-yl)-6-(2-hydroxy-2-methylpropoxy)pyrazolo[1,5-a]pyridine-3-carbonitrile]	> 100	50 to 100
Cn1ccc(-c2cc(-c3ccc(N4C[C@@H]5C[C@@](O)(Cc6ccccn6)C[C@@H]5C4)nc3)c3c(C#N)cnn3c2)n1 [Example 105, 4-(6-((3aR,5r,6aS)-5-hydroxy-5-(pyridin-2-ylmethyl)hexahydrocyclopenta[c]pyrrol-2(1H)-yl)pyridin-3-yl)-6-(1-methyl-1H-pyrazol-3-yl)pyrazolo[1,5-a]pyridine-3-carbonitrile]	10 to 50	≤ 10
CC(C)(O)COc1cc(-c2cnc(N3C4CC5CC3CC(NC(=O)c3ncccc3F)(C5)C4)cn2)c2c(C#N)cnn2c1 [Example 168, N-((1R,3S,5s,7s)-2-(5-(3-cyano-6-(2-hydroxy-2-methylpropoxy)pyrazolo[1,5-a]pyridin-4-yl)pyrazin-2-yl)-2-azaadamantan-5-yl)-3-fluoropicolinamide]	10 to 50	≤ 10

The remaining lines, values ahead:

GI50 (BAF3-KIF5B-RET cells) [nM]	IC50 (human RET kinase) [nM]	SMILES
≤ 10	≤ 10	COc1cccnc1C(=O)N[C@]1(C)C[C@H]2CN(c3cnc(-c4cc(-c5cnn(C)c5)cn5ncc(C#N)c45)cn3)C[C@H]2C1 [Example 151, N-((3aR,5s,6aS)-2-(5-(3-cyano-6-(1-methyl-1H-pyrazol-4-yl)pyrazolo[1,5-a]pyridin-4-yl)pyrazin-2-yl)-5-methyloctahydrocyclopenta[c]pyrrol-5-yl)-3-methoxypicolinamide]
10 to 50	≤ 10	COc1ccc(C(=O)NC[C@@H]2[C@H]3CN(c4cnc(-c5cc(-c6cnn(C)c6)cn6ncc(C#N)c56)cn4)C[C@@H]23)cn1 [Example 156, N-(((1R,5S,6s)-3-(5-(3-cyano-6-(1-methyl-1H-pyrazol-4-yl)pyrazolo[1,5-a]pyridin-4-yl)pyrazin-2-yl)-3-azabicyclo[3.1.0]hexan-6-yl)methyl)-6-methoxynicotinamide]
≤ 10	≤ 10	CC(C)(O)COc1cc(-c2ccc(N3C[C@H]4C[C@@H](NC(=O)c5ncccc5Cl)C[C@H]4C3)nc2)c2c(C#N)cnn2c1 [Example 106, 3-chloro-N-((3aR,5r,6aS)-2-(5-(3-cyano-6-(2-hydroxy-2-methylpropoxy)pyrazolo[1,5-a]pyridin-4-yl)pyridin-2-yl)octahydrocyclopenta[c]pyrrol-5-yl)picolinamide]
10 to 50	≤ 10	Cn1cc(-c2cc(-c3cnc(N4C[C@@H]5C[C@@](C)(NC(=O)c6ccnc(C(F)(F)F)c6)C[C@@H]5C4)cn3)c3c(C#N)cnn3c2)cn1 [Example 147, N-((3aR,5s,6aS)-2-(5-(3-cyano-6-(1-methyl-1H-pyrazol-4-yl)pyrazolo[1,5-a]pyridin-4-yl)pyrazin-2-yl)-5-methyloctahydrocyclopenta[c]pyrrol-5-yl)-2-(trifluoromethyl)isonicotinamide]
10 to 50	≤ 10	COc1ccc(NC(=O)C23CC4CC(C2)N(c2cnc(-c5cc(OCC(C)(C)O)cn6ncc(C#N)c56)cn2)C(C4)C3)cn1 [Example 171, (1R,3S,5s,7s)-2-(5-(3-cyano-6-(2-hydroxy-2-methylpropoxy)pyrazolo[1,5-a]pyridin-4-yl)pyrazin-2-yl)-N-(6-methoxypyridin-3-yl)-2-azaadamantane-5-carboxamide]
≤ 10	≤ 10	CC(C)(O)COc1cc(-c2cnc(N3C4CC5CC3CC(NC(=O)c3ncccc3Cl)(C5)C4)cn2)c2c(C#N)cnn2c1 [Example 164, 3-chloro-N-((1R,3S,5s,7s)-2-(5-(3-cyano-6-(2-hydroxy-2-methylpropoxy)pyrazolo[1,5-a]pyridin-4-yl)pyrazin-2-yl)-2-azaadamantan-5-yl)picolinamide]
≤ 10	≤ 10	COc1ccc(NC(=O)C23CC4CC(C2)N(c2ccc(-c5cc(-c6cnn(C)c6)cn6ncc(C#N)c56)cn2)C(C4)C3)cn1 [Example 189, (1R,3S,5s,7s)-2-(5-(3-cyano-6-(1-methyl-1H-pyrazol-4-yl)pyrazolo[1,5-a]pyridin-4-yl)pyridin-2-yl)-N-(6-methoxypyridin-3-yl)-2-azaadamantane-5-carboxamide]
≤ 10	≤ 10	COc1cccc(C(=O)N[C@]2(C)C[C@H]3CN(c4cnc(-c5cc(-c6cnn(C)c6)cn6ncc(C#N)c56)cn4)C[C@H]3C2)n1 [Example 146, N-((3aR,5s,6aS)-2-(5-(3-cyano-6-(1-methyl-1H-pyrazol-4-yl)pyrazolo[1,5-a]pyridin-4-yl)pyrazin-2-yl)-5-methyloctahydrocyclopenta[c]pyrrol-5-yl)-6-methoxypicolinamide]
≤ 10	≤ 10	COc1cccnc1C(=O)NC[C@@H]1[C@H]2CN(c3ccc(-c4cc(-c5cnn(C)c5)cn5ncc(C#N)c45)cn3)C[C@@H]12 [Example 191, N-(((1R,5S,6s)-3-(5-(3-cyano-6-(1-methyl-1H-pyrazol-4-yl)pyrazolo[1,5-a]pyridin-4-yl)pyridin-2-yl)-3-azabicyclo[3.1.0]hexan-6-yl)methyl)-3-methoxypicolinamide]
≤ 10	≤ 10	COc1cc(C(=O)N[C@]2(C)C[C@H]3CN(c4cnc(-c5cc(-c6cnn(C)c6)cn6ncc(C#N)c56)cn4)C[C@H]3C2)ccn1 [Example 150, N-((3aR,5s,6aS)-2-(5-(3-cyano-6-(1-methyl-1H-pyrazol-4-yl)pyrazolo[1,5-a]pyridin-4-yl)pyrazin-2-yl)-5-methyloctahydrocyclopenta[c]pyrrol-5-yl)-2-methoxyisonicotinamide]
≤ 10	≤ 10	CCOc1cc(-c2cnc(N3C4CC5CC3CC(NC(=O)c3ncccc3Cl)(C5)C4)cn2)c2c(C#N)cnn2c1 [Example 169, 3-chloro-N-((1R,3S,5s,7s)-2-(5-(3-cyano-6-ethoxypyrazolo[1,5-a]pyridin-4-yl)pyrazin-2-yl)-2-azaadamantan-5-yl)picolinamide]
